{"source": "patent US9586999B2", "about": "“Methods and compositions related to improving properties of pharmacological agents targeting nervous system” (University of Utah Research Foundation, priority 2006, dated 2017)", "key": {"[1]": {"tested_on": "formalin-induced paw licking", "assay": "Mouse formalin test of inflammatory pain", "format": "in vivo", "method": "An injection of 0.5% formalin is made into the planter region of a mouse right hind paw. This elicits a distinct biphasic behavioral profile characterized by the mouse licking the affected paw. Immediately following the injection the mouse licks the paw for about 10 minutes. This is phase 1 (acute) and is followed by a brief latent period where there is little behavioral activity. A more prolonged period of about 20 to 30 minutes of paw licking ensues which constitutes phase 2 (inflammatory).\nPrior to the administration of the active peptide, drug or vehicle each mouse undergoes a 15-minute conditioning period in one of several 6″ tall plexiglass observation tubes (4″ diameter) that are placed in front of a mirror. […] One hour after treatment, formalin was injected sub-dermally (20 μl; 27 gauge needle) into the plantar surface of the right hind foot. The bevel of the needle is placed facing down toward the skin surface. Following the injection of the formalin each animal is observed for first 2 minutes of each 5 minute epoch for a total of 45 minutes. The cumulative length of licking for each 2 minute time period was measured. An animal receiving the requisite volume of vehicle was alternated with each mouse given GAL-BBB2, Gal 1-16, or gabapentin. Animals were euthanized following the conclusion of the experiment.\nArea under the curve (AUC) determination was made using the GraphPad Prism Version 3.03. Total AUC is calculated for both the test and control groups for both the acute and inflammatory phases. The AUC for individual animals for each phase is also calculated and converted to percentage of total AUC of control. The average percentages and SEM for both the drug treated and control were calculated and tested for significant difference."}, "corneal kindling": {"tested_on": "corneal kindling", "assay": "Mouse corneal kindling acquisition", "format": "in vivo", "method": "CF#1 mice were randomized to receive either vehicle (0.9% saline) or NAX-5055. Mice in the NAX-5055 group received two doses of NAX-5055 twelve (12 h) and 1 h prior to their first kindling stimulation. One hour (1 h) prior to each subsequent stimulation, mice in the NAX-5055 treated group received another dose of NAX-5055 (4 mg/kg, i.p.). Mice were stimulated twice daily for 16 days. Results are expressed as the mean seizure score per stimulation. As noted above, the results for the NAX-5055 treated mice segregated into two populations; i.e., sensitive (green line) and insensitive (blue line).\nMice treated with NAX-5055 (see legend to Figure X for experimental details) segregated into two treatment groups; i.e., NAX-5055 sensitive and NAX-5055 insensitive. Results are expressed as the number of stimulations required to reach a particular seizure score+/−S.E.M.; i.e., 1 to 5. […] One Way ANOVA, p<0.0209; post hoc analysis: saline vs. NAX-5055 insensitive, p>0.05; NAX-5055 sensitive vs. NAX-5055 insensitive, p<0.05.\nDaily electrical stimulation via the cornea results in a stable kindled state within 15-20 days. This is an ideal model to initially assess the ability of selected galanin analogs to prevent kindling acquisition because the amount of peptide required is much lower than what is required for a rat kindling study. Those compounds found to be effective in preventing the acquisition of kindling are subsequently evaluated in a more traditional rat kindling model; i.e., amygdala kindled rat. For the proposed studies two groups of mice (n=8 mice per group) are randomized to receive either vehicle or peptide prior to each kindling stimulation. […] At the time to peak effect (obtained from the 6 Hz study), they are stimulated via corneal electrodes with a subconvulsive current (50 Hz, 3 mA, for 3.0 sec) and observed for the presence or absence of seizure activity. Seizure activity is scored according to the criteria established by Racine et al., (1972). Animals receive two stimulations per day until they display their first Stage 5 behavioral seizure and then once daily until they display stable secondarily generalized seizures (5 consecutive Stage 4-5 seizures). Peptide treatment continues in the experimental group until the point that the control mice become fully kindled. At this point, mice in both groups are permitted a one-week stimulus and treatment-free week. On the 8th day, mice in both groups are stimulated in the absence of peptide or vehicle and their seizure score recorded.\nThe ability of the blood-brain-barrier penetrant galanin-based neuropeptide NAX-5055 to prevent the development of corneal kindling was studied in CF#1 mice. […] Following stimulation seizure activity was scored on a scale of 0-5 as established by Racine (1972)."}, "[2]": {"conditions": "4 mg/kg i.p. twice daily, NAX-5055 sensitive group"}}}
{"substance": "Sar-Trp-Thr-Leu-Asn-Ser-Ala-Gly-Tyr-Leu-Leu-Gly-Pro-Lys-Lys-(Lys-palm)-Lys-NH2 [NAX 5055]", "values": [{"measurement": "effect compared with gabapentin", "setting": "[1]; 5 mg/kg", "value": "equivalent to a 10 mg/kg dose of gabapentin"}, {"measurement": "paw licking, acute and inflammatory phase", "setting": "[1]; 0.52-5 mg/kg i.p., 1 h before formalin", "value": "dose-dependent reduction in paw licking"}, {"measurement": "phase II response at the active dose", "setting": "[1]; mouse formalin assay", "value": "(“flat phase II”)"}, {"measurement": "Active at", "setting": "[1]; mouse formalin assay of inflammatory pain", "value": 5, "unit": "mg/kg"}, {"measurement": "potency in mouse formalin assay", "setting": "[1]; mouse, in vivo", "value": "potent"}, {"measurement": "kindling acquisition", "setting": "corneal kindling; 4 mg/kg i.p.", "value": "can delay kindling acquisition"}, {"measurement": "Stage 5 seizures", "setting": "corneal kindling; [2]", "value": "none of the mice in the NAX-5055 sensitive group reached Stage 5 seizures"}, {"measurement": "more stimulations to reach Stage 2 and Stage 3 seizures", "setting": "corneal kindling; [2]", "value": "35-40%"}, {"measurement": "stimulations required to reach a Stage 1 seizure", "setting": "corneal kindling; [2]", "value": "two times more stimulations"}]}
